For one data set, the system named is P. falciparum 3D7 strain. Kind of data set: cell-based P. falciparum proliferation assay, 3D7 strain. Conditions: Plasmodium falciparum; chloroquine sensitive 3D7 strain; means of two experiments. An excerpt:
(§1) Currently there is a need for novel chemical scaffolds with different mechanisms of action, since most of the current approved antimalarial drugs belong to the aminoquinoline family. In order to find new chemical scaffolds, we initiated a compound screen using our in-house kinase inhibitor collection and subjected them to a cell-based of Plasmodium falciparum proliferation assay[5,6] We envisioned that the hits arising from this screen can be rapidly optimized by leveraging our past experiences with these compounds series in alternative target-classes/indications. Furthermore, we thought that it would be prudent to remove the human kinase activity early on during the compound optimization phase to negate the possibility of toxicity arising from host-related off-target activities (Scheme 1).

Data set [1] can be described thus: snapshot PK in mice, single oral dose. The data set is classed as in vivo. Conditions: mice balb/c, 20 mg/kg orally, PEG300/D5W 3:1 solution, free base; for AUC(0-t) / Cmax at 5 h / Tmax at 5 h: mouse, in vivo, po. The protocol: Mice were dosed a single dose of 20 mg/kg orally and their exposure levels were monitored over a period of 5 h and results are summarized in Table 6.[11]
[11] Snapshot PK is developed and used by GNF pharmacology group as a rapid pharmacokinetic screening approach. The pharmacokinetic parameters of the compounds are studied in a single mode of administration (generally PO arm) over a period of 5 h. The study is carried out on two animals and the samples are pooled together at each time point. This high throughput approach offers exposure levels with reasonable confidence without committing to extensive resources. For details, see: Liu, B.; Chang, J.; Gordon, W. P.; Isbell, J.; Zhou, Yi.; Tuntland, T. Drug Discovery Today2008, 13, 360–367.

In a further data set the test system is P. falciparum W2 strain. Kind of data set: cell-based P. falciparum proliferation assay, W2 strain. Details: species or system Plasmodium falciparum. As to conditions: Plasmodium falciparum, W2, read-out: P. falciparum W2 strain EC50.
Source text: as §1
One important aspect of antimalarial drug discovery is to identify agents that are active against the drug-resistant parasites. […] While most of these resistance phenotypes are due to point mutations in the drug target, the W2 strain also contains an amplification of the P. falciparum multidrug resistance transporter.[10]

A further data set concerns P. falciparum strain D6. In words: P. falciparum proliferation assay, D6 strain. The data set is classed as cell-based. As to conditions: Plasmodium falciparum.
Source text: as §1
(§2) Compound 32 was profiled in an extended panel of 15 drug resistant strains (Table 5) and against a 6-cell line toxicity panel.

The test system of another data set is CHO. The data set is classed as cell-based. As to conditions: Chinese hamster.
Source text: as §2

The subject of a further data set is Huh7. The data set is classed as cell-based. Conditions: human.
Source text: as §2

The next data set deals with HeLa. The data set is classed as cell-based. As to conditions: human.
Source text: as §2

In a further data set the test system is Ba/F3. The data set is classed as cell-based. As to conditions: mouse.
Source text: as §2

The next data set concerns 293T. The data set is classed as cell-based. Conditions: human.
Source text: as §2

For another data set, the system named is HEp2. The data set is classed as cell-based. Conditions: human.
Source text: as §2

Another data set deals with P. falciparum strain HB3. In words: P. falciparum proliferation assay, HB3 strain. The data set is classed as cell-based. As to conditions: Plasmodium falciparum.
Source text: as §1, §2

Data set [2] relates to P. falciparum strain NF54. Kind of data set: P. falciparum proliferation assay, NF54 strain. The data set is classed as cell-based. As to conditions: Plasmodium falciparum.
Source text: as §1, §2

Another data set relates to P. falciparum strain K1. In words: P. falciparum proliferation assay, K1 strain. The data set is classed as cell-based. As to conditions: Plasmodium falciparum.
Source text: as §1, §2

The test system of data set [3] is P. falciparum strain Camp R. In words: P. falciparum proliferation assay, Camp R strain. The data set is classed as cell-based. Conditions: Plasmodium falciparum.
Source text: as §1, §2

Data set [4] has as its system P. falciparum strain TM91C235. In words: P. falciparum proliferation assay, TM91C235 strain. Conditions: Plasmodium falciparum. The data set is classed as cell-based.
Source text: as §1, §2

The nature of data set [5]: HT-thermodynamic solubility. The data set is classed as physicochemical. Conditions: pH 6.8; pH6.8, free base; preliminary. An excerpt: (§3) We also performed preliminary solubility and metabolic stability measurements on compound 32.
The nature of data set [6]: metabolic stability in mouse microsomes. Conditions: preliminary. The data set is classed as in vitro ADME.
Source text: as §3

The test system of the next data set is 15 P. falciparum strains. Kind of data set: extended panel of 15 drug resistant strains. The data set is classed as cell-based, Plasmodium falciparum. As to conditions: 15 strains, potencies relative to each other.
Source text: as §2

The next data set has as its system P. falciparum strain FCB. In words: P. falciparum proliferation assay, FCB strain. The data set is classed as cell-based. Conditions: Plasmodium falciparum.
Source text: as §1, §2

In data set [7] the test system is P. falciparum strain FCR3. In words: P. falciparum proliferation assay, FCR3 strain. Conditions: Plasmodium falciparum. The data set is classed as cell-based.
Source text: as §1, §2

A further data set deals with P. falciparum strain D10. In words: P. falciparum proliferation assay, D10 strain. The data set is classed as cell-based. Conditions: Plasmodium falciparum.
Source text: as §1, §2

Another data set has as its system P. falciparum strain Dd2. In words: P. falciparum proliferation assay, Dd2 strain. The data set is classed as cell-based. Conditions: Plasmodium falciparum.
Source text: as §1, §2

The subject of data set [8] is P. falciparum strain C188. In words: P. falciparum proliferation assay, C188 strain. The data set is classed as cell-based. As to conditions: Plasmodium falciparum.
Source text: as §1, §2

Another data set deals with P. falciparum strain 7G8. In words: P. falciparum proliferation assay, 7G8 strain. Conditions: Plasmodium falciparum. The data set is classed as cell-based.
Source text: as §1, §2

Data set [9] can be described thus: 6-cell line toxicity panel, selectivity index. The data set is classed as cell-based. As to conditions: cytotoxicity TC50 vs antiplasmodial potency; read-out: selectivity index (SI).
Source text: as §2

Data set [10] deals with P. falciparum strain 3BAG. Kind of data set: P. falciparum proliferation assay, 3BAG strain. The data set is classed as cell-based. As to conditions: Plasmodium falciparum.
Source text: as §1, §2

Each structure is given as a SMILES string. In brackets after ≈: the same amount, converted by molar mass.

By EC50 is commonly meant the midpoint of the concentration-response curve. What is called AUC(0-t) is the area under the concentration-time curve up to a stated or last time point. Higher therefore signals high exposure. By Cmax is commonly meant the highest concentration seen after dosing. A word on the Tmax: it is the time from dosing to the highest level. For orientation: solubility (thermodynamic) means the concentration in solution at equilibrium with solid. As usually defined, the microsomal CLint is the capacity of the preparation to metabolise the compound, expressed as a volume cleared per time.

Consider `FC(F)(F)c1cccc(CNc2cc(N3CCC(N4CCCC4)CC3)cc(C(F)(F)F)c2)c1` [Compound 20], for which, in the data set on P. falciparum 3D7 strain, a half-maximal effect (EC50) was put at 1.98 µM.
Take `FC(F)(F)c1cccc(Nc2cc(N3CCC(N4CCCC4)CC3)cc(C(F)(F)F)c2)c1` [Compound 21]: the EC50 in the data set on P. falciparum 3D7 strain was determined as 0.638 µM.
`O=C(NCc1cccc(C(F)(F)F)c1)c1cc(N2CCC(N3CCCC3)CC2)cc(C(F)(F)F)c1` [Compound 22] displayed a 50% effective concentration (EC50) in the data set on P. falciparum 3D7 strain of 0.734 µM.
In the case of `O=C(NC1(c2cccc(C(F)(F)F)c2)CC1)c1cc(N2CCC(N3CCCC3)CC2)cc(C(F)(F)F)c1` [Compound 23], in the data set on P. falciparum 3D7 strain, the midpoint of the response, the EC50, lay at 0.423 µM.
As for `O=C(Nc1cccc(Cl)c1)c1cc(F)cc(N2CCC(N3CCCC3)CC2)c1` [Compound 24], the EC50 with P. falciparum 3D7 strain amounted to 0.766 µM.
As to `O=C(Nc1cccc(Cl)c1)c1cccc(N2CCC(N3CCCC3)CC2)c1` [Compound 25], in the data set with P. falciparum 3D7 strain, the EC50 was found to be 5.88 µM.
The same measure, in the same setting: next, `O=C(Nc1cccc(Cl)c1)c1ccnc(N2CCC(N3CCCC3)CC2)c1` [Compound 26]: 0.674 µM; `O=C(Nc1cccc(Cl)c1)c1cc(C(F)(F)F)nc(N2CCC(N3CCCC3)CC2)n1` [Compound 27]: 1.67 µM; `Cc1cc(C(=O)Nc2cccc(Cl)c2)nc(N2CCC(N3CCCC3)CC2)n1` [Compound 28]: 2.98 µM.
Regarding `CC(C)(C)c1cc(C(=O)Nc2cccc(Cl)c2)nc(N2CCC(N3CCCC3)CC2)n1` [Compound 29], the EC50 with P. falciparum 3D7 strain is 2.08 µM.
Take `O=C(Nc1cccc(Cl)c1)c1cc(N2CCC(N3CCCCC3)CC2)cc(C(F)(F)F)c1` [Compound 30]: in [1], the “AUC(0–5h)/dose” value is 6.10 (min ug/mL)/(mg/kg), the AUC(0-t) was determined as 4.37 µM·h, the Cmax at 5 h stood at 1370 nM and the Tmax at 5 h turned out to be 1 h. For the same molecule, the EC50 in the data set on P. falciparum W2 strain came to 0.296 µM. This molecule had an EC50 with P. falciparum 3D7 strain of 0.082 µM.
In the case of `O=C(Nc1cccc(C(F)(F)F)c1)c1cc(N2CCC(N3CCCCC3)CC2)cc(C(F)(F)F)c1` [Compound 31], the EC50 in the data set with P. falciparum W2 strain amounted to 0.299 µM; in the data set with P. falciparum 3D7 strain, 0.149 µM.
For the molecule `CC1CCN(C2CCN(c3cc(C(=O)Nc4cccc(Cl)c4)cc(C(F)(F)F)c3)CC2)CC1` [Compound 32], the EC50 in the data set on P. falciparum strain D6 was 0.081 µM; in the data set on P. falciparum strain HB3, 0.146 µM; in [2], 0.104 µM; in the data set with P. falciparum W2 strain, 0.323 µM; in the data set on P. falciparum strain K1 it was 0.15 µM; in [3] it was 0.138 µM. For the same molecule, the EC50 was determined as 0.12 µM in data set [4]; 0.14 µM with P. falciparum 3D7 strain; 0.306 µM in the data set on P. falciparum strain FCB; 0.218 µM in data set [7]; 0.094 µM in the data set on P. falciparum strain D10; 0.141 µM with P. falciparum strain Dd2. The EC50 was determined as 0.083 µM in [8], 0.309 µM with P. falciparum strain 7G8 and 0.268 µM in [10]. For the same molecule, the “cytotoxicity TC50” value with CHO, in the data set with Huh7, in the data set on HeLa, with Ba/F3, in the data set with 293T and in the data set on HEp2 was “greater than 8 μM” each time. For the same molecule, the “AUC(0–5h)/dose” value in data set [1] was 11.42 (min ug/mL)/(mg/kg). In data set [1], this molecule yielded an AUC(0-t) of 7.93 µM·h. The concentration in [1] peaked (Cmax at 5 h) at 2280 nM. In addition, the Tmax at 5 h in data set [1] is 5 h. This molecule also showed a thermodynamic solubility in data set [5] of 26 µg/mL (≈ 54.2 µM). In addition, the extraction ratio in data set [6] came to 0.383 ± 0.04. This molecule also displayed a microsomal CLint in [6] of 21.4 µL/min/mg. The “spread of potencies across the strain panel” value in the data set with 15 P. falciparum strains was at most 3 fold. In addition, the selectivity ratio in data set [9] was over 20.
With `O=C(Nc1cccc(C(F)(F)F)c1)c1cc(N2CCC(N3CCCCC3=O)CC2)cc(C(F)(F)F)c1` [Compound 33], the EC50 with P. falciparum W2 strain was determined as 1.41 µM; in the data set on P. falciparum 3D7 strain it was 1.49 µM.
Take `CC1CCCN(C2CCN(c3cc(C(=O)Nc4cccc(C(F)(F)F)c4)cc(C(F)(F)F)c3)CC2)C1` (stereo not shown) [Compound 34]: the EC50 in the data set with P. falciparum W2 strain came to 0.211 µM; in the data set on P. falciparum 3D7 strain, 0.058 µM.
For `O=C(Nc1cccc(C(F)(F)F)c1)c1cc(N2CCc3ccccc3C2)cc(C(F)(F)F)c1` [Compound 35], in data set [1], the “AUC(0–5h)/dose” value is reported as 2.33 (min ug/mL)/(mg/kg), the area under the curve AUC(0-t) was found to be 1.67 µM·h, the Cmax at 5 h was determined as 672 nM and the Tmax at 5 h was 0.5 h. In the data set on P. falciparum W2 strain, the EC50 is 0.635 µM. A half-maximal response with P. falciparum 3D7 strain (EC50) required 0.175 µM.

The record behind these values is article PMC3532596, “Cell-based optimization of novel benzamides as potential antimalarial leads” (Bioorganic & Medicinal Chemistry Letters, 2009).
